From patent publication US9133262B2, “Somatostatin antagonists” (Ipsen Pharma S.A.S., priority 1996, dated 2015)
Positions of bridges follow the written chain, without caps; N, C: chain ends. Non-standard residues stand in square brackets, D forms with d. Residues, ends and D or L forms follow the SMILES beside them. Phe(4-NO2) = N[C@@H](Cc1ccc([N+](=O)[O-])cc1)C(=O)O; Bip = N[C@@H](Cc1ccc(-c2ccccc2)cc1)C(=O)O; Tyr(3-I) = N[C@@H](Cc1ccc(O)c(I)c1)C(=O)O; dBip = N[C@H](Cc1ccc(-c2ccccc2)cc1)C(=O)O; dDip = N[C@@H](C(=O)O)C(c1ccccc1)c1ccccc1; Phe(4-CN) = N#Cc1ccc(C[C@H](N)C(=O)O)cc1; Phe(4-Cl) = N[C@@H](Cc1ccc(Cl)cc1)C(=O)O; Dip = N[C@H](C(=O)O)C(c1ccccc1)c1ccccc1; Phe(3-F) = N[C@@H](Cc1cccc(F)c1)C(=O)O; Phe(4-F) = N[C@@H](Cc1ccc(F)cc1)C(=O)O; 2Nal = N[C@@H](Cc1ccc2ccccc2c1)C(=O)O; Phe(2-F) = N[C@@H](Cc1ccccc1F)C(=O)O; Igl = N[C@H](C(=O)O)C1Cc2ccccc2C1; 3Pal = N[C@@H](Cc1cccnc1)C(=O)O

What follows are molecules tested on rat pituitary cells. Conditions: 3 h.
Format: cell-based
Text: Bioassay on the In Vitro Release of Growth Hormone
(a) Rat Pituitary Cell Dispersion
Pituitaries from adult Charles River CD male rats (Wilmington, Mass.) housed under controlled conditions were dispersed and cultured using aseptic technique by modification of previously described methods (Hoefer, M. T., et al., Mol. Cell. Endocrinol. 35:229 (1984); Ben-Jonathan, N., et al., Methods Enzymol. 103:249 (1983); and Heiman, M. L., et al., Endocrinology 116:410 (1985)). Pituitaries were removed from sacrificed rats, sectioned, and then placed into a siliconized, liquid scintillation vial containing 2 ml 0.2% trypsin (Worthington Biochemicals, Freehold, N.J.) in sterile-filtered Krebs-Ringer bicarbonate buffer supplemented with 1% bovine serum albumin, 14 mM glucose, modified Eagle medium (MEM) vitamin solution, and MEM amino acids (Gibco Laboratories, Grand Island, N.Y.) (KRBGA). All glassware was siliconized as described by Sayers, et al., Endocrinology 88:1063 (1971). The fragments were incubated in a water bath for 35 min at 37° C. with agitation. The vial contents then were poured into a scintillation vial containing 2 ml 0.1% DNase (Sigma Chemical Co., St. Louis, Mo.) in KRBGA and incubated for 2 min at 37° C. with agitation. After incubation, the tissue was decanted into a 15 ml centrifuge tube and allowed to settle. Medium was discarded, and pituitary sections were washed 3 times with 1 ml fresh-KRBGA. The cells were then dispersed in 2 ml 0.05% LBI (lima bean trypsin inhibitor, Worthington Biochemicals) by gently drawing the fragments into and expelling them out of a siliconized, fire polished Pasteur pipette. Dispersed cells were then filtered through a 630 μm diameter Nylon mesh (Tetko, Elmsford, N.Y.) into a fresh 15 ml centrifuge tube. An additional 2 ml of 0.05% LBI solution was used to rinse the first tube and was transferred to the second tube with filtering.
The dispersed cells were then further diluted with approximately 15 ml sterile-filtered Dulbecco's modified Eagle medium (GIBCO), which was supplemented with 2.5% fetal calf serum (GIBCO), 3% horse serum (GIBCO), 10% fresh rat serum (stored on ice for no longer than 1 hr) from the pituitary donors, 1% MEM non-essential amino acids (GIBCO), and gentamycin (10 ng/ml; Sigma) and nystatin (10,000 U/ml; GIBCO). The cells were poured into a 50 ml round-bottomed glass extraction flask with a large diameter opening and then randomly plated at a density of approximately 200,000 cells per well (Co-star cluster 24; Rochester Scientific Co., Rochester, N.Y.). The plated cells were maintained in the above Dulbecco's medium in a humidified atmosphere of 95% air and 5% CO2 at 37° C. for 4-5 days.
(c) Experimental Incubation and IC50 Determination
In preparation for a hormone challenge, the cells were washed 3 times with medium 199 (GIBCO) to remove old medium and floating cells. Each treatment well contained a total volume of 1 ml medium 199 containing 1% BSA (fraction V; Sigma) with treatments as described below. Each antagonist candidate was tested using a single 24-well cell culture plate. Each treatment was performed in triplicate. Each plate contained 8 treatment groups: one 1 nM growth hormone releasing factor (GRF) (1-29)NH2-stimulated control group; one 1 nM somatostatin-inhibited control group in the presence of 1 nM GRF(1-29)NH2; and 6 doses of a given antagonist in the presence of both 1 nM SRIF and 1 nM GRF per plate. After 3 hrs at 37° C. in a air/carbon dioxide atmosphere (95/5%), the medium was removed and stored at −20° C. until radioimmunoassayed for growth hormone content. IC50's of each antagonist versus 1 nM SRIF were calculated using a computer program (SigmaPlot, Jandel Scientific, San Rafael, Calif.) with the maximum response constrained to the value of the 1 nM GRF(1-29)NH2-stimulated control.
`CC[C@H](C)[C@@H]1NC(=O)[C@H](CCCCN)NC(=O)[C@@H](Cc2c[nH]c3ccccc23)NC(=O)[C@H](Cc2cccnc2)NC(=O)[C@H](NC(=O)[C@@H](N)Cc2ccc3ccccc3c2)CSSC[C@@H](C(=O)N[C@@H](Cc2ccc3ccccc3c2)C(N)=O)NC1=O` [Analog No. 32, H2-β-Nal-D-Cys-Pal-D-Trp-Lys-Ile-Cys-β-Nal-NH4] (H-[2Nal][dC][3Pal][dW]KIC[2Nal]-NH2; disulfide 2-7) gave an IC50 of 12 nM. With `NCCCC[C@@H]1NC(=O)[C@@H](Cc2c[nH]c3ccccc23)NC(=O)[C@H](Cc2cccnc2)NC(=O)[C@H](NC(=O)[C@@H](N)Cc2ccc3ccccc3c2)CSSC[C@@H](C(=O)N[C@@H](Cc2ccc3ccccc3c2)C(N)=O)NC(=O)CNC1=O` [Analog No. 33, H2-β-Nal-D-Cys-Pal-D-Trp-Lys-Gly-Cys-β-Nal-NH2] (H-[2Nal][dC][3Pal][dW]KGC[2Nal]-NH2; disulfide 2-7) the IC50 was 1500 nM. Work on `C[C@@H]1NC(=O)[C@H](CCCCN)NC(=O)[C@@H](Cc2c[nH]c3ccccc23)NC(=O)[C@H](Cc2cccnc2)NC(=O)[C@H](NC(=O)[C@@H](N)Cc2ccc3ccccc3c2)CSSC[C@@H](C(=O)N[C@@H](Cc2ccc3ccccc3c2)C(N)=O)NC1=O` [Analog No. 34, H2-β-Nal-D-Cys-Pal-D-Trp-Lys-Ala-Cys-β-Nal-NH2] (H-[2Nal][dC][3Pal][dW]KAC[2Nal]-NH2; disulfide 2-7) yielded an IC50 of 420 nM. `CC(C)C[C@@H]1NC(=O)[C@H](CCCCN)NC(=O)[C@@H](Cc2c[nH]c3ccccc23)NC(=O)[C@H](Cc2cccnc2)NC(=O)[C@H](NC(=O)[C@@H](N)Cc2ccc3ccccc3c2)CSSC[C@@H](C(=O)N[C@@H](Cc2ccc3ccccc3c2)C(N)=O)NC1=O` [Analog No. 35, H2-β-Nal-D-Cys-Pal-D-Trp-Lys-Leu-Cys-β-Nal-NH2] (H-[2Nal][dC][3Pal][dW]KLC[2Nal]-NH2; disulfide 2-7) gave an IC50 of 52 nM. For `CC[C@H](C)[C@@H]1NC(=O)[C@H](CCCCN)NC(=O)[C@@H](Cc2c[nH]c3ccccc23)NC(=O)[C@H](Cc2ccc(O)cc2)NC(=O)[C@H](NC(=O)[C@@H](N)Cc2ccc(-c3ccccc3)cc2)CSSC[C@@H](C(=O)N[C@@H](Cc2ccc(-c3ccccc3)cc2)C(N)=O)NC1=O` [Analog No. 36, H2-Bip-D-Cys-Tyr-D-Trp-Lys-Ile-Cys-Bip-NH2] (H-[Bip][dC]Y[dW]KIC[Bip]-NH2; disulfide 2-7), the IC50 was 1030 nM. `CC(C)[C@@H]1NC(=O)[C@H](CCCCN)NC(=O)[C@@H](Cc2c[nH]c3ccccc23)NC(=O)[C@H](Cc2ccc(O)cc2)NC(=O)[C@H](NC(=O)[C@H](N)Cc2ccc(-c3ccccc3)cc2)CSSC[C@@H](C(=O)N[C@@H](Cc2ccc3ccccc3c2)C(N)=O)NC1=O` [Analog No. 37, H2-D-Bip-D-Cys-Tyr-D-Trp-Lys-Val-Cys-β-Nal-NH2] (H-[dBip][dC]Y[dW]KVC[2Nal]-NH2; disulfide 2-7) showed an IC50 of 780 nM. For `CC(C)[C@@H]1NC(=O)[C@H](CCCCN)NC(=O)[C@@H](Cc2c[nH]c3ccccc23)NC(=O)[C@H](Cc2c[nH]cn2)NC(=O)[C@H](NC(=O)[C@@H](N)Cc2ccc(F)cc2)CSSC[C@@H](C(=O)N[C@@H](Cc2ccc(F)cc2)C(N)=O)NC1=O` [Analog No. 38, H2-p-F-Phe-D-Cys-His-D-Trp-Lys-Val-Cys-p-F-Phe-NH2] (H-[Phe(4-F)][dC]H[dW]KVC[Phe(4-F)]-NH2; disulfide 2-7), the IC50 was 110 nM. `CC(C)[C@@H]1NC(=O)[C@H](CCCCN)NC(=O)[C@@H](Cc2c[nH]c3ccccc23)NC(=O)[C@H](Cc2cccnc2)NC(=O)[C@H](NC(=O)[C@@H](N)Cc2ccc([N+](=O)[O-])cc2)CSSC[C@@H](C(=O)N[C@@H](Cc2ccc(O)cc2)C(N)=O)NC1=O` [Analog No. 39, H2-Npa-D-Cys-Pal-D-Trp-Lys-Val-Cys-Tyr-NH2] (H-[Phe(4-NO2)][dC][3Pal][dW]KVCY-NH2; disulfide 2-7) was tested, and the IC50 was 34 nM. With `CC(C)[C@@H]1NC(=O)[C@H](CCCCN)NC(=O)[C@@H](Cc2c[nH]c3ccccc23)NC(=O)[C@H](Cc2c[nH]cn2)NC(=O)[C@H](NC(=O)[C@@H](N)Cc2cccc(F)c2)CSSC[C@@H](C(=O)N[C@@H](Cc2cccc(F)c2)C(N)=O)NC1=O` [Analog No. 40, H2-m-F-Phe-D-Cys-His-D-Trp-Lys-Val-Cys-m-F-Phe-NH2] (H-[Phe(3-F)][dC]H[dW]KVC[Phe(3-F)]-NH2; disulfide 2-7) the IC50 was 110 nM. In the case of `CC(C)[C@@H]1NC(=O)[C@H](CCCCN)NC(=O)[C@@H](Cc2c[nH]c3ccccc23)NC(=O)[C@H](Cc2c[nH]cn2)NC(=O)[C@H](NC(=O)[C@@H](N)Cc2ccccc2F)CSSC[C@@H](C(=O)N[C@@H](Cc2ccccc2F)C(N)=O)NC1=O` [Analog No. 41, H2-o-F-Phe-D-Cys-His-D-Trp-Lys-Val-Cys-o-F-Phe-NH2] (H-[Phe(2-F)][dC]H[dW]KVC[Phe(2-F)]-NH2; disulfide 2-7), the IC50 is reported as 210 nM. Work on `CC(C)[C@@H]1NC(=O)[C@H](CCCCN)NC(=O)[C@@H](Cc2c[nH]c3ccccc23)NC(=O)[C@H](Cc2cccnc2)NC(=O)[C@H](NC(=O)[C@@H](N)Cc2ccc3ccccc3c2)CSSC[C@@H](C(=O)N[C@H](C(N)=O)C(c2ccccc2)c2ccccc2)NC1=O` [Analog No. 42, H2-β-Nal-D-Cys-Pal-D-Trp-Lys-Val-Cys-Dip-NH2] (H-[2Nal][dC][3Pal][dW]KVC[Dip]-NH2; disulfide 2-7) yielded an IC50 of 44 nM. `CC(C)[C@@H]1NC(=O)[C@H](CCCCN)NC(=O)[C@@H](Cc2c[nH]c3ccccc23)NC(=O)[C@H](Cc2cccnc2)NC(=O)[C@H](NC(=O)[C@@H](N)Cc2ccc(Cl)cc2)CSSC[C@@H](C(=O)N[C@@H](Cc2ccc(Cl)cc2)C(N)=O)NC1=O` [Analog No. 43, H2-Cpa-D-Cys-Pal-D-Trp-Lys-Val-Cys-Cpa-NH2] (H-[Phe(4-Cl)][dC][3Pal][dW]KVC[Phe(4-Cl)]-NH2; disulfide 2-7) showed an IC50 of 0.82 nM. In the case of `CC(C)[C@@H]1NC(=O)[C@H](CCCCN)NC(=O)[C@@H](Cc2c[nH]c3ccccc23)NC(=O)[C@H](Cc2cccnc2)NC(=O)[C@H](NC(=O)[C@@H](N)C2Cc3ccccc3C2)CSSC[C@@H](C(=O)N[C@H](C(N)=O)C2Cc3ccccc3C2)NC1=O` [Analog No. 44, H2-Igl-D-Cys-Pal-D-Trp-Lys-Val-Cys-Igl-NH2] (H-[Igl][dC][3Pal][dW]KVC[Igl]-NH2; disulfide 2-7), the IC50 is reported as 21 nM. `CC(C)[C@@H]1NC(=O)[C@H](CCCCN)NC(=O)[C@@H](Cc2c[nH]c3ccccc23)NC(=O)[C@H](Cc2cccnc2)NC(=O)[C@H](NC(=O)[C@@H](N)Cc2ccc3ccccc3c2)CSSC[C@@H](C(=O)N[C@@H](C(N)=O)C(c2ccccc2)c2ccccc2)NC1=O` [Analog No. 45, H2-β-Nal-D-Cys-Pal-D-Trp-Lys-Val-Cys-D-Dip-NH2] (H-[2Nal][dC][3Pal][dW]KVC[dDip]-NH2; disulfide 2-7) gave an IC50 of 130 nM. `CC(C)[C@@H]1NC(=O)[C@H](CCCCN)NC(=O)[C@@H](Cc2c[nH]c3ccccc23)NC(=O)[C@H](Cc2ccc(O)c(I)c2)NC(=O)[C@H](NC(=O)[C@@H](N)Cc2ccc3ccccc3c2)CSSC[C@@H](C(=O)N[C@@H](Cc2ccc3ccccc3c2)C(N)=O)NC1=O` [Analog No. 46, H2-β-Nal-D-Cys-3-I-Tyr-D-Trp-Lys-Val-Cys-β-Nal-NH2] (H-[2Nal][dC][Tyr(3-I)][dW]KVC[2Nal]-NH2; disulfide 2-7) was tested, and the IC50 was 20 nM. `CC(C)[C@@H]1NC(=O)[C@H](CCCCN)NC(=O)[C@@H](Cc2c[nH]c3ccccc23)NC(=O)[C@H](Cc2cccnc2)NC(=O)[C@H](NC(=O)[C@@H](N)Cc2ccc(C#N)cc2)CSSC[C@@H](C(=O)N[C@@H](Cc2ccc(C#N)cc2)C(N)=O)NC1=O` [Analog No. 47, H2-p-CN-Phe-D-Cys-Pal-D-Trp-Lys-Val-Cys-p-CN-Phe-NH2] (H-[Phe(4-CN)][dC][3Pal][dW]KVC[Phe(4-CN)]-NH2; disulfide 2-7) showed an IC50 of 53 nM.
